Values joined by “and” are separate entries in the source; they are usually repeats but may differ in a detail not shown here. Equal entries are not always repeated. Inconclusive results and toxic doses are left out. How the source made its calls: active means survival T/C of 150% or more; inactive means T/C below 125% in these data.
Tested on: P388 leukemia ip, CD2F1 mice, survival T/C
Test: NCI In Vivo Anticancer Drug Screen. Data for tumor model P388 Leukemia (intraperitoneal) in CD2F1 (CDF1) mice
Conditions: endpoint: median survival time, higher = longer survival
Summary of the method: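 Mice carrying the transplanted tumor received test compound or vehicle. Survival was recorded in each group, and the value is the treated-group measurement divided by that of the vehicle-treated control group.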

[1] = dose: 60.0 mg/kg/injection, schedule: Q01DX005 (ip), vehicle: saline with Tween-80
[2] = dose: 120.0 mg/kg/injection, schedule: Q01DX005 (ip), vehicle: saline with Tween-80

Measured: T/C

CN(C)c1ccc(/C=N/N=C(/C#N)[S][Sn]([S]/C(C#N)=N/N=C/c2ccc(N(C)C)cc2)([c]2ccccc2)[c]2ccccc2)cc1
inactive: dose: 7.5 mg/kg/injection, schedule: Q01DX005 (ip), vehicle: saline with Tween-80 112 % of control | dose: 15.0 mg/kg/injection, schedule: Q01DX005 (ip), vehicle: saline with Tween-80 123 % of control

CCOC(=O)C1=C(C(=O)c2ccc(C)cc2)C(c2ccc([N+](=O)[O-])cc2)C(C(=O)c2ccc(C)cc2)=C(C(=O)OCC)N1
inactive: [1] 90 % of control | [2] 90 % of control

CC(C)N1CC(CCO)C(c2ccccc2)(c2ccccc2)C1 (stereo not drawn)
inactive: dose: 50.0 mg/kg/injection, schedule: Q01DX009 (ip), vehicle: Klucel (hydroxypropylcellulose) (HPC) 99 % of control | dose: 100.0 mg/kg/injection, schedule: Q01DX009 (ip), vehicle: Klucel (hydroxypropylcellulose) (HPC) 97 % of control | dose: 200.0 mg/kg/injection, schedule: Q01DX009 (ip), vehicle: Klucel (hydroxypropylcellulose) (HPC) 106 % of control

CC(O)C(=O)O (stereo not drawn)
inactive: dose: 0.06 % in 0.5 ml injection vol, schedule: Q01DX009 (ip), vehicle: water 98 % of control and 100 % of control | dose: 0.12 % in 0.5 ml injection vol, schedule: Q01DX009 (ip), vehicle: water 107 % of control and 95 % of control | dose: 0.25 % in 0.5 ml injection vol, schedule: Q01DX009 (ip), vehicle: water 93 % of control | dose: 0.5 % in 0.5 ml injection vol, schedule: Q01DX009 (ip), vehicle: water 99 % of control and 100 % of control | dose: 4.0 % in 0.5 ml injection vol, schedule: Q01DX009 (ip), vehicle: water 100 % of control | dose: 8.0 % in 0.5 ml injection vol, schedule: Q01DX009 (ip), vehicle: water 99 % of control and 100 % of control

Cc1cccc(C(=O)O)c1C
inactive: dose: 50.0 mg/kg/injection, schedule: Q04DX003 (ip), vehicle: gum acacia 100 % of control | dose: 100.0 mg/kg/injection, schedule: Q04DX003 (ip), vehicle: gum acacia 97 % of control | dose: 200.0 mg/kg/injection, schedule: Q04DX003 (ip), vehicle: gum acacia 93 % of control | dose: 400.0 mg/kg/injection, schedule: Q04DX003 (ip), vehicle: gum acacia 98 % of control

CC(C)C/C=N/N(C)C=O
inactive: dose: 100.0 mg/kg/injection, schedule: Q04DX002 (ip), vehicle: saline 100 % of control | dose: 200.0 mg/kg/injection, schedule: Q04DX002 (ip), vehicle: saline 100 % of control | dose: 400.0 mg/kg/injection, schedule: Q04DX002 (ip), vehicle: saline 103 % of control

COC(=O)/C(=C\Sc1ccccc1)NC(C)=O
inactive: dose: 60.0 mg/kg/injection, schedule: Q01DX005 (ip), vehicle: Klucel (hydroxypropylcellulose) (HPC) 100 % of control | dose: 120.0 mg/kg/injection, schedule: Q01DX005 (ip), vehicle: Klucel (hydroxypropylcellulose) (HPC) 98 % of control | dose: 240.0 mg/kg/injection, schedule: Q01DX005 (ip), vehicle: Klucel (hydroxypropylcellulose) (HPC) 107 % of control

CCOC(=O)c1cnc2cc3c(cc2c1Nc1ccc2c(c1)OCO2)OCO3
inactive: dose: 60.0 mg/kg/injection, schedule: Q01DX005 (ip), vehicle: Klucel + Tween-80 108 % of control | dose: 120.0 mg/kg/injection, schedule: Q01DX005 (ip), vehicle: Klucel + Tween-80 109 % of control

CC(=O)Nc1nc(=O)c2c(n1C(C)=O)N(C(C)=O)C(=O)C2
inactive: dose: 100.0 mg/kg/injection, schedule: Q04DX002 (ip), vehicle: saline with Tween-80 103 % of control | dose: 200.0 mg/kg/injection, schedule: Q04DX002 (ip), vehicle: saline with Tween-80 103 % of control | dose: 400.0 mg/kg/injection, schedule: Q04DX002 (ip), vehicle: saline with Tween-80 100 % of control

COc1cc(Br)c(C2=C3c4cc(OC)c(OC)cc4CCN3C(=O)C2=O)cc1OC
inactive: dose: 50.0 mg/kg/injection, schedule: Q01DX005 (ip), vehicle: Klucel (hydroxypropylcellulose) (HPC) 99 % of control | dose: 100.0 mg/kg/injection, schedule: Q01DX005 (ip), vehicle: Klucel (hydroxypropylcellulose) (HPC) 93 % of control | dose: 200.0 mg/kg/injection, schedule: Q01DX005 (ip), vehicle: Klucel (hydroxypropylcellulose) (HPC) 90 % of control

COc1ccc2c(c1OC)C(=O)O/C2=C\c1cc2c(cc1CCN(C)C)OCO2
inactive: dose: 12.5 mg/kg/injection, schedule: Q01DX001 (ip), vehicle: saline + alcohol 99 % of control | dose: 25.0 mg/kg/injection, schedule: Q01DX001 (ip), vehicle: saline + alcohol 98 % of control | dose: 50.0 mg/kg/injection, schedule: Q01DX001 (ip), vehicle: saline + alcohol 99 % of control

CC1=C(/C=C/c2ccc(N(C)C)cc2)C(C)C(c2ccc(N(C)C)cc2)CC1=O (stereo not drawn)
inactive: dose: 25.0 mg/kg/injection, schedule: Q01DX001 (ip), vehicle: Klucel (hydroxypropylcellulose) (HPC) 88 % of control | dose: 50.0 mg/kg/injection, schedule: Q01DX001 (ip), vehicle: Klucel (hydroxypropylcellulose) (HPC) 94 % of control | dose: 100.0 mg/kg/injection, schedule: Q01DX001 (ip), vehicle: Klucel (hydroxypropylcellulose) (HPC) 93 % of control

S=C(NC1CCCCC1)N1CCC(CCCC2CCN(C(=S)NC3CCCCC3)CC2)CC1
inactive: dose: 25.0 mg/kg/injection, schedule: Q04DX003 (ip), vehicle: saline with Tween-80 90 % of control | dose: 50.0 mg/kg/injection, schedule: Q01DX009 (ip), vehicle: saline with Tween-80 90 % of control | dose: 50.0 mg/kg/injection, schedule: Q04DX003 (ip), vehicle: saline with Tween-80 90 % of control | dose: 100.0 mg/kg/injection, schedule: Q01DX009 (ip), vehicle: saline with Tween-80 90 % of control and 95 % of control | dose: 100.0 mg/kg/injection, schedule: Q04DX003 (ip), vehicle: saline with Tween-80 90 % of control | dose: 200.0 mg/kg/injection, schedule: Q01DX009 (ip), vehicle: saline with Tween-80 90 % of control | dose: 200.0 mg/kg/injection, schedule: Q04DX003 (ip), vehicle: saline with Tween-80 90 % of control | dose: 400.0 mg/kg/injection, schedule: Q01DX009 (ip), vehicle: saline with Tween-80 95 % of control | dose: 400.0 mg/kg/injection, schedule: Q04DX003 (ip), vehicle: saline with Tween-80 90 % of control

COc1cc(C(c2cc3c(cc2O)OCO3)N2CCN(C(c3ccc(O)c(OC)c3)c3cc4c(cc3O)OCO4)CC2)ccc1O (stereo not drawn)
inactive: [1] 89 % of control | [2] 92 % of control | dose: 240.0 mg/kg/injection, schedule: Q01DX005 (ip), vehicle: saline with Tween-80 95 % of control

COC(=O)C1(C)CCCC2(C)c3cc(OC)ccc3C3(CC12)SCCS3 (stereo not drawn)
inactive: dose: 10.0 mg/kg/injection, schedule: Q01DX009 (ip), vehicle: saline with Tween-80 95 % of control | dose: 20.0 mg/kg/injection, schedule: Q01DX009 (ip), vehicle: saline with Tween-80 99 % of control | dose: 40.0 mg/kg/injection, schedule: Q01DX009 (ip), vehicle: saline with Tween-80 103 % of control

NC(Cc1ccc(OC2c3ccccc3-c3ccccc32)cc1)C(=O)O (stereo not drawn)
inactive: dose: 50.0 mg/kg/injection, schedule: Q01DX009 (ip), vehicle: saline 100 % of control | dose: 100.0 mg/kg/injection, schedule: Q01DX009 (ip), vehicle: saline 91 % of control | dose: 200.0 mg/kg/injection, schedule: Q01DX009 (ip), vehicle: saline 87 % of control

CCCCCCCCC[N+]1(CC)CCCCC1
inactive: dose: 3.12 mg/kg/injection, schedule: Q01DX009 (ip), vehicle: saline 121 % of control | dose: 6.25 mg/kg/injection, schedule: Q01DX009 (ip), vehicle: saline 121 % of control | dose: 12.5 mg/kg/injection, schedule: Q01DX009 (ip), vehicle: saline 86 % of control
